Measurements from ChEMBL document CHEMBL1201862, “PubChem BioAssay data set” (2004).
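All cell lines were grown in 96-well plates and treated with compound for 48 hours. Abbreviation: GI50, concentration required for 50% inhibition of growth.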 Activity calls are given as the source filed them. No stated cut-off is given here; in the data, active = GI50 up to about 1.1 µM and inactive = higher.

What was measured:
Assay in all cases: NCI-60 cell line screen, 48 h
MDA-MB-435 = tested on: MDA-MB-435
HL-60 = tested on: HL-60
NCI-H226 = tested on: NCI-H226
HCT-116 = tested on: HCT-116
SK-MEL-28 = tested on: SK-MEL-28
SK-MEL-2 = tested on: SK-MEL-2
NCI-H522 = tested on: NCI-H522
PC-3 = tested on: PC-3
SF-295 = tested on: SF-295
SF-539 = tested on: SF-539
MDA-N = tested on: MDA-N
SK-MEL-5 = tested on: SK-MEL-5
COLO 205 = tested on: COLO 205
HOP-92 = tested on: HOP-92
A549 = tested on: A549
HOP-62 = tested on: HOP-62
SW-620 = tested on: SW-620
SN12C = tested on: SN12C
UACC-257 = tested on: UACC-257
SR = tested on: SR

Measured: GI50

O=C1C=C(c2c(O)ccc3ccccc23)c2ccccc2C1=O
inactive: MDA-MB-435 3.01 µM | HL-60 2.65 µM | NCI-H226 9.77 µM | HCT-116 2.15 µM | SK-MEL-28 9.95 µM | SK-MEL-2 4.68 µM | NCI-H522 1.61 µM | PC-3 2.12 µM | SF-295 4.19 µM | SF-539 2.09 µM | MDA-N 2 µM | SK-MEL-5 2.51 µM | COLO 205 6.76 µM | HOP-92 2.22 µM | A549 5.86 µM | HOP-62 13 µM | SW-620 2.09 µM | SN12C 2.58 µM | UACC-257 2.39 µM

CN1C(=O)CC2CCCN2C1=O (configuration not stated)
inactive: MDA-MB-435 > 100 µM | NCI-H226 > 100 µM | SR > 100 µM | SK-MEL-28 5.09 µM | SK-MEL-2 > 100 µM | NCI-H522 > 100 µM | PC-3 > 100 µM | SF-295 > 100 µM | SF-539 > 100 µM | MDA-N > 100 µM | SK-MEL-5 > 100 µM | COLO 205 > 100 µM | HOP-92 86.9 µM | A549 > 100 µM | HOP-62 > 100 µM | SW-620 > 100 µM | UACC-257 > 100 µM

CCOC(=O)/C(C#N)=C(/NNc1ccccc1)c1ccncc1C(=O)O
inactive: MDA-MB-435 5.68 µM | HL-60 2.75 µM | NCI-H226 > 100 µM | HCT-116 > 100 µM | SK-MEL-28 > 39.1 µM | SK-MEL-2 > 75.2 µM | NCI-H522 > 100 µM | PC-3 7.08 µM | SF-295 5.47 µM | SF-539 24.7 µM | MDA-N > 40.8 µM | SK-MEL-5 9.82 µM | COLO 205 4.37 µM | HOP-92 > 100 µM | A549 > 52.7 µM | HOP-62 > 100 µM | SW-620 3.27 µM | SN12C > 100 µM | UACC-257 26.2 µM

O=C(NNC(=S)Nc1cccc(Cl)c1)c1cc(-c2ccccc2)nc2ccccc12
inactive: MDA-MB-435 16 µM | NCI-H226 20 µM | HCT-116 15.4 µM | SR 23.9 µM | SK-MEL-28 12.4 µM | SK-MEL-2 13.8 µM | NCI-H522 14.5 µM | PC-3 15.1 µM | SF-295 11.7 µM | SF-539 15.1 µM | MDA-N 18.3 µM | SK-MEL-5 16.9 µM | COLO 205 12.9 µM | HOP-92 12.5 µM | A549 16.3 µM | HOP-62 16.3 µM | SW-620 14.6 µM | SN12C 14.7 µM | UACC-257 15.7 µM

CN(C)C1=Nc2ccccc2C(=S)N2CSCC12 (configuration not stated)
inactive: MDA-MB-435 > 100 µM | NCI-H226 > 100 µM | HCT-116 > 100 µM | SR 17.9 µM | SK-MEL-28 81.1 µM | SK-MEL-2 > 100 µM | NCI-H522 14.6 µM | PC-3 > 100 µM | SF-295 > 100 µM | MDA-N 39.2 µM | SK-MEL-5 > 100 µM | COLO 205 22.3 µM | A549 > 100 µM | HOP-62 > 100 µM | SW-620 34.8 µM | SN12C 84.5 µM | UACC-257 > 100 µM

COC(=O)/C(=N\Nc1nnc(C)n1N)C(C#N)c1ccccc1 (configuration not stated)
inactive: MDA-MB-435 17.3 µM | HL-60 > 100 µM | NCI-H226 > 100 µM | HCT-116 > 73.1 µM | SK-MEL-28 > 100 µM | SK-MEL-2 > 100 µM | NCI-H522 > 100 µM | PC-3 > 100 µM | SF-295 > 100 µM | SF-539 64.1 µM | MDA-N 23.4 µM | SK-MEL-5 92.3 µM | COLO 205 > 63.2 µM | HOP-92 > 100 µM | A549 > 92.7 µM | HOP-62 > 100 µM | SW-620 > 86.5 µM | SN12C > 48.4 µM | UACC-257 40.6 µM

CSc1c(C#N)c2n(c3ccccc3[n+]2C)c2ncccc12
inactive: MDA-MB-435 32 µM | NCI-H226 16.2 µM | HCT-116 24.2 µM | SR 23.5 µM | SK-MEL-28 21.4 µM | SK-MEL-2 20.1 µM | NCI-H522 19.5 µM | PC-3 19.1 µM | SF-295 18.9 µM | MDA-N 21.2 µM | SK-MEL-5 12.9 µM | COLO 205 13.8 µM | A549 12.5 µM | HOP-62 23.4 µM | SW-620 20.2 µM | SN12C 21.2 µM

CCc1n[nH]c(=O)n1NC(=O)c1ccccc1C(=O)O
inactive: MDA-MB-435 > 100 µM | HCT-116 > 100 µM | SR > 100 µM | SK-MEL-28 > 100 µM | SK-MEL-2 > 100 µM | NCI-H522 > 100 µM | PC-3 > 100 µM | SF-295 > 100 µM | SF-539 > 100 µM | MDA-N > 100 µM | SK-MEL-5 > 100 µM | COLO 205 > 100 µM | HOP-92 > 100 µM | A549 > 100 µM | HOP-62 > 100 µM | SW-620 > 100 µM | SN12C > 100 µM | UACC-257 > 100 µM

c1cc(-c2ncc(-c3ccc4c(c3)CCCO4)o2)ccn1
inactive: MDA-MB-435 2.36 µM | HL-60 2.42 µM | NCI-H226 21 µM | HCT-116 10.7 µM | SK-MEL-28 11.6 µM | SK-MEL-2 10.8 µM | NCI-H522 3.78 µM | PC-3 11.5 µM | SF-295 16.6 µM | SF-539 9.38 µM | MDA-N 2.48 µM | SK-MEL-5 9.2 µM | COLO 205 5.42 µM | HOP-92 21.6 µM | A549 7.41 µM | HOP-62 18.1 µM | SN12C 25.8 µM | UACC-257 13.2 µM

O=C(Nc1ccc(Cl)cc1)C(=O)C1=C(O)c2ccccc2OC1
inactive: MDA-MB-435 > 100 µM | HL-60 > 100 µM | NCI-H226 > 100 µM | HCT-116 > 100 µM | SK-MEL-28 > 100 µM | SK-MEL-2 > 100 µM | NCI-H522 > 100 µM | PC-3 > 100 µM | SF-295 > 100 µM | SF-539 > 100 µM | MDA-N > 100 µM | SK-MEL-5 > 100 µM | COLO 205 > 100 µM | HOP-92 > 100 µM | A549 > 100 µM | SW-620 > 100 µM | SN12C > 100 µM | UACC-257 > 100 µM

CC1C(c2ccccc2)O[B-](F)(c2ccccc2)[NH+]1C (configuration not stated)
inactive: MDA-MB-435 > 100 µM | HL-60 > 100 µM | NCI-H226 > 100 µM | HCT-116 > 100 µM | SR > 100 µM | SK-MEL-28 > 100 µM | PC-3 > 100 µM | SF-295 > 100 µM | MDA-N > 100 µM | SK-MEL-5 > 100 µM | COLO 205 > 100 µM | HOP-92 > 100 µM | A549 > 100 µM | HOP-62 > 100 µM | SW-620 > 100 µM | SN12C > 100 µM | UACC-257 > 100 µM
